From patent US6620403B2, “In vivo chemosensitivity screen for human tumors” (priority 2000, dated 2003)
Several values for one entry are separate records, joined by “and”; a condition that tells them apart may be missing. Equal entries are not always repeated.

Tests used:
[1] = system: human NSCLC heterotransplants; experiment: Paclitaxel treatment and tumor response of human NSCLC heterotransplants grown subcutaneously in nude mice; type: in vivo
Procedure: The in vivo sensitivity to paclitaxel was studied in 34 successfully grown heterotransplants. The paclitaxel was intravenously administered to each mouse at a dosage rate of 60 mg/kg every 3 weeks. Treatment was initiated when the tumors reached a size of about 5 mm in diameter and strict standard clinical criteria (>50% tumor shrinkage) were used to define the tumor response. The heterotransplants were morphologically very similar to the original tumors. The response rate to paclitaxel was 21% (95% Cl 9-38%) which is equivalent to that reported in Phase II studies in patients with advanced NSCLC treated with paclitaxel alone. Tumor heterotransplants are thus proposed as relevant models to evaluate new potential anti-tumor agents for treatment of different cancers and to predict clinical response in individual patients. It is noted that the type of tumor utilized for evaluating chemosensitivity to anti-tumor agents comprises a range of cancers including, but not limited to, colon, head and neck, brain, melanoma, sarcoma, breast, ovarian, prostate, kidney and stomach cancers.
The fresh tumor samples were cut into 2-3 mm^3 pieces in sterile saline. Three or four pieces of non-necrotic tissue were injected subcutaneously into the lower back and anterior chest of 6 to 8 week old female Nu/Nu mice using a biomedical stainless steel implant needle and maintained under standardized conventional conditions. Animals transplanted with NSCLC tumors were checked for tumor growth over a 36 week period. Tumor formation measuring at least 5 mm in diameter was considered a positive take. Tumor formation was confirmed histologically in all cases. Temporary growth was defined as tumor formation followed by spontaneous regression before reaching a diameter of 5 mm. All other incidences were considered no growth.
The therapeutic experiments were designed as a standard Phase II clinical study with a target response rate of 20%, the only difference being that the tumor response was assessed as the average of two animals rather than in a single subject as in the case of a human Phase II trial.
The tumor grown after implantation from human to mouse was resected and cut into pieces following the same procedure used for the original tumor sample as previously described above, and transplanted subcutaneously into several animals. Tumors from the first mouse to mouse passage were allowed to grow until reaching 5 mm in diameter, at which time the animals were split into two groups: 1) control group—no treatment; and 2) treated group. The treated group was administered 60 mg/kg paclitaxel intravenously as a bolus in the tail vein. Tumor measurements were performed twice a week and the tumor volume was calculated using the formula, a×b^2/2 (a=longest diameter and b=shortest diameter). Partial tumor response was defined as an average reduction in the tumor volume of at least 50% in the animals of the treated group compared to the tumor volume measured in animals of the control group. Complete tumor response was defined as complete disappearance of the palpable tumor in both animals of the […].

[2] = system: human NSCLC heterotransplants; experiment: as above; type: in vivo; remark: listed apart in the source
NSCLC = conditions: single agent, cited from earlier work
[3] = First mouse to mouse passage, after second dose (day 21), 16 heterotransplants, number of responses (%)

In the case of `CC(=O)O[C@H]1C(=O)[C@@]2(C)[C@H]([C@H](OC(=O)c3ccccc3)[C@]3(O)C[C@H](OC(=O)[C@H](O)[C@@H](NC(=O)c4ccccc4)c4ccccc4)C(C)=C1C3(C)C)[C@]1(OC(C)=O)CO[C@@H]1C[C@@H]2O` [paclitaxel], the “non-responders to one dose achieving a partial response after the second dose” value ([1]; 12 heterotransplants that did not respond with one dose) is reported as “None”, the “partial responses after one dose” value ([1]; 16 heterotransplants given two doses, 4/16, 95% CI 7%-52%) is reported as 25% and the “partial responses converted into complete response after two doses” value ([1]; 16 heterotransplants, second dose on day 21, number out of 4 partial responses) is reported as “Three”. The “effect of second dose on overall response rate” value ([1]; 16 heterotransplants, second dose on day 21 versus single dose) was “did not change the overall response rate”, the response rate ([1]; 21 heterotransplants, first mouse to mouse passage, 95% CI 8%-47%) was 24% and the overall response rate ([1]; 34 heterotransplants, first mouse to mouse passage, one single dose 60 mg/kg i.v., 95% CI 9-38%) was 21%. For the same compound, the “Tumor Response/(%) Complete” value ([1]; Adenocarcinoma, first mouse to mouse passage, 11 heterotransplants, single dose 60 mg/kg i.v.) was 0, the “Tumor Response/(%) Partial” value ([1]; Adenocarcinoma, first mouse to mouse passage, 11 heterotransplants, single dose 60 mg/kg i.v., number of responses (%)) was 1 (9%) and the “Tumor Response/(%) Complete” value ([1]; First mouse to mouse passage, after first dose, 16 heterotransplants) was 0. For the same compound, the “Tumor Response/(%) Partial” value ([1]; First mouse to mouse passage, after first dose, 16 heterotransplants, number of responses (%)) was 4 (24%), the “Tumor Response/(%) Complete” value [1, 3] was 3 (18%) and the “Tumor Response/(%) Partial” value [1, 3] was 1 (6%). The “Tumor Response/(%) Complete” value ([1]; First passage, 21 heterotransplants tested on both first and second mouse to mouse passages) was 0, the “Tumor Response/(%) Partial” value ([1]; First passage, 21 heterotransplants tested on both first and second mouse to mouse passages, number of responses (%)) was 5 (24%) and the “Tumor Response/(%) Partial” value ([1]; Neuroendocrine carcinoma, first mouse to mouse passage, 1 heterotransplant, single dose 60 mg/kg i.v., number of responses) was 1. For the same compound, the “Tumor Response/(%) Complete” value ([1]; Second passage, 21 heterotransplants tested on both first and second mouse to mouse passages) was 0, the “Tumor Response/(%) Complete” value ([1]; Squamous carcinoma, first mouse to mouse passage, 20 heterotransplants, single dose 60 mg/kg i.v.) was 0 and the “Tumor Response/(%) Partial” value ([1]; Squamous carcinoma, first mouse to mouse passage, 20 heterotransplants, single dose 60 mg/kg i.v., number of responses (%)) was 4 (20%). For the same compound, the “Tumor Response/(%) Complete” value ([1]; TOTAL, first mouse to mouse passage, 34 heterotransplants, single dose 60 mg/kg i.v., number of responses (%)) was 0 (0%), the “Tumor Response/(%) Partial” value ([1]; TOTAL, first mouse to mouse passage, 34 heterotransplants, single dose 60 mg/kg i.v., number of responses (%), 60 mg/kg) was 7 and the “Tumor Response/(%) Partial” value ([1]; TOTAL, first mouse to mouse passage, 34 heterotransplants, single dose 60 mg/kg i.v., number of responses (%), listed as Paclitaxel, 60 mg/kg) was 7 (21%). For the same compound, the “Tumor Response/(%) Partial” value ([1]; Undifferentiated carcinoma, first mouse to mouse passage, 2 heterotransplants, single dose 60 mg/kg i.v., number of responses) was 1, the response rate ([2]; 21 heterotransplants, second mouse to mouse passage, 95% CI 11%-52%) was 29% and the “Tumor Response/(%) Partial” value ([2]; Second passage, 21 heterotransplants tested on both first and second mouse to mouse passages, number of responses (%)) was 6 (29%). For the same compound, the “response rate in the individual Phase II studies” value (NSCLC; each of four Phase II studies, previously untreated NSCLC patients) was 10% and 21% and 24% and 38% and the “reported overall response rate” value (NSCLC; four Phase II studies, total of 160 previously untreated NSCLC patients) was 24%.
